Assay [1] concerns HUVEC cells. The assay can be described thus: VEGF dependent cell proliferation (MTS). The assay is classed as cell-based. Conditions: Homo sapiens, VEGF 165 (50ng/ml), 72 hours, serum-free medium, read-out: Gl50 nM (VEGF ligand-dependent cell proliferation). How it is done:
HUVEC cells were plated into 96-well plates at 6,000 per well and after 24 hours incubated with serum-free medium for 2 hours. Compounds to be tested and VEGF 165 (50ng/ml) were added and incubated for 72 hours in serum-free medium. The effects on cell proliferation were determined by MTS method (Promega) according to the instruction. Incubation was performed for 2 hours at 37°C in CO2 incubator, and absorbance at 490nm was determined using an ELISA plate reader.

Assay [2] deals with total HDAC enzyme. The assay can be described thus: In vitro total HDAC enzyme activity (HDAC Fluorimetric Assay/Drug Discovery Kit, HeLa cell nuclear extract). The assay is classed as biochemical. How it is done: The in vitro total HDAC enzyme activity was determined by HDAC Fluorimetric Assay/Drug Discovery Kit (BIOMOL) according to manufacture's instruction. The principle of the experiment is as follows: under the action of histone deacetylase (in the experiment, HeLa cell nuclear extract, which was rich in a variety of subtypes of HDAC, was used), an acetyl group is removed from a special substrate Fluor de Lys, thus the free amino is exposed. Upon Developer is added, the substrate will produce fluorescence. For the fluorescence, excitation wavelength is 360nm, and emission wavelength is 460nm. More fully the substrate deacetylated, more higher the fluorescence induced. In the absence of inhibitors, the fluorescence value is taken as the control; when inhibitor is existed, fluorescence value induced will be reduced, while in the case no enzyme is existed (corresponding to the completely inhibition of enzyme activity) the fluorescence value is blank. Generally, after suppression the fluorescence values will be between the control and blank. When analysis is made, blank will be used as 0, and the control will be used as 1. Smaller value means higher inhibitory activity. 1. Add Assay buffer, diluted trichostatin A and test inhibitor to appropriate wells of the microtiter plate. Following table lists the amounts used for each regent of various assay types.
2. Add diluted HeLa nucleoprotein extract to all wells except those that are marked as "blank". 3. Allow diluted Fluor de Lys™ Substrate and the samples in the microtiter plate to equilibrate to 25°C. 4. Initiate HDAC reactions by adding diluted substrate (25 µl) to each well and mixing thoroughly. 5. Allow reactions to proceed for 30 minutes and then stop them by addition of Fluor de Lys™ Developer (50 µl). Incubate plate at room temperature (25°C) for 10-15 min. 6. Read fluorescence of samples on a microtiter-plate reading fluorimeter at a excitation wavelength of 369 nm and a emitted wavelength of 451 nm.

The test system of assay [3] is Class I HDAC. Put plainly: HDAC subtype selectivity reporter gene assay (P21 reporter, HeLa cells). The format is cell-based. Conditions: Homo sapiens; 10µM; HeLa cells, 24 hours; read-out: Class I HDAC (P21 reporter assay) Fold Induction at 10µM. As to the method: Different HDAC subtypes can bind with different transcriptional factors and involve in expression regulation of various genes. Suitable regulation elements for transcriptional factors are selected to construct reporter genes, which can be used to evaluate the selective inhibition of inhibors on HDAC subtypes. Briefly, HeLa cells were seeded in 96-well plates the day before transfection to give a confluence of 50-80% when transfection. Cells were transfected with one of reporter gene plasmid containing a p21-promoter sequence or response element upstream of a luciferase gene construct using FuGene6 transfection reagent according to the manufacturer's instruction (Roche). For normalizing the transfection efficiency, a GFP expression plasmid was cotransfected. After 24 hours compounds or the vehicle control (DMSO) were added. 24 hours later the cells were harvested and lysed, and the amount of the luciferase was evaluated using luciferase assay kits (Promega) according to the manufacturer's instructions.

Assay [4] has as its target T1, human PDGFRβ (Homo sapiens, UniProt P09619).
T1 construct: expressed in transfected cells
The assay can be described thus: PDGF dependent cell proliferation (MTS). The assay is classed as cell-based. The following applies: PDGFRβ NIH-3T3 cells, PDGF BB (50ng/ml), 72 hours, serum-free medium; read-out: Gl50 nM (PDGF ligand-dependent cell proliferation). As to the method: NIH-3T3 mouse fibroblasts cell line engineered to stably express human PDGFRβ was constructed and used to evaluate PDGF dependent cell proliferation. PDGFRβ NIH-3T3 cells were plated into 96-well plates at 5,000 per well and incubated overnight with serum-free medium after 24 hours. Compounds to be tested and PDGF BB (50ng/ml) were added and incubated for 72 hours in serum-free medium. The effects on proliferation were determined by MTS method (Promega) according to the instruction. Incubation was performed for 2 hours at 37°C in CO2 incubator, and absorbance at 490nm was measured using an ELISA plate reader.

Assay [5] concerns A-498. Put plainly: Tumor cell proliferation (MTS), A-498. The format is cell-based. The following applies: Homo sapiens, A498; A-498, 72 hours; read-out: Gl50 µM in A-498. As to the method: (§1) Tumor cells were trypsinized and plated into 96-well plates at 3,000 per well and incubated in complete medium with 10% FBS for 24 hours. Compounds to be tested and vehicle control were added, and the final concentration of compound is in the range of 100 nmol/L to 100 µmol/L. The compounds were incubated for 72 hours in complete medium. The MTS reagent (Promega) was added according to the instruction, incubated for 2 hours at 37°C in CO2 incubator. Then absorbance at 490nm is read using an ELISA plate reader.

For assay [6], the system named is MCF-7. The assay can be described thus: Tumor cell proliferation (MTS), MCF-7. The format is cell-based. The following applies: Homo sapiens, MCF7; MCF-7, 72 hours; read-out: Gl50 µM in MCF-7. As to the method:
as §1

Assay [7] relates to A549. Put plainly: Tumor cell proliferation (MTS), A549. The format is cell-based. Conditions: Homo sapiens; A549, 72 hours; read-out: Gl50 µM in A549. As to the method:
as §1

Assay [8] relates to Bel-7402. Put plainly: Tumor cell proliferation (MTS), Bel-7402. The format is cell-based. Conditions: Homo sapiens; Bel-7402, 72 hours; read-out: Gl50 µM in Bel-7402. As to the method: as §1
The test system of assay [9] is HCT-8. Put plainly: Tumor cell proliferation (MTS), HCT-8. The assay is classed as cell-based. Conditions: Homo sapiens; HCT-8, 72 hours; read-out: Gl50 µM in HCT-8. As to the method:
as §1

T1 sequence (P09619 33-1106): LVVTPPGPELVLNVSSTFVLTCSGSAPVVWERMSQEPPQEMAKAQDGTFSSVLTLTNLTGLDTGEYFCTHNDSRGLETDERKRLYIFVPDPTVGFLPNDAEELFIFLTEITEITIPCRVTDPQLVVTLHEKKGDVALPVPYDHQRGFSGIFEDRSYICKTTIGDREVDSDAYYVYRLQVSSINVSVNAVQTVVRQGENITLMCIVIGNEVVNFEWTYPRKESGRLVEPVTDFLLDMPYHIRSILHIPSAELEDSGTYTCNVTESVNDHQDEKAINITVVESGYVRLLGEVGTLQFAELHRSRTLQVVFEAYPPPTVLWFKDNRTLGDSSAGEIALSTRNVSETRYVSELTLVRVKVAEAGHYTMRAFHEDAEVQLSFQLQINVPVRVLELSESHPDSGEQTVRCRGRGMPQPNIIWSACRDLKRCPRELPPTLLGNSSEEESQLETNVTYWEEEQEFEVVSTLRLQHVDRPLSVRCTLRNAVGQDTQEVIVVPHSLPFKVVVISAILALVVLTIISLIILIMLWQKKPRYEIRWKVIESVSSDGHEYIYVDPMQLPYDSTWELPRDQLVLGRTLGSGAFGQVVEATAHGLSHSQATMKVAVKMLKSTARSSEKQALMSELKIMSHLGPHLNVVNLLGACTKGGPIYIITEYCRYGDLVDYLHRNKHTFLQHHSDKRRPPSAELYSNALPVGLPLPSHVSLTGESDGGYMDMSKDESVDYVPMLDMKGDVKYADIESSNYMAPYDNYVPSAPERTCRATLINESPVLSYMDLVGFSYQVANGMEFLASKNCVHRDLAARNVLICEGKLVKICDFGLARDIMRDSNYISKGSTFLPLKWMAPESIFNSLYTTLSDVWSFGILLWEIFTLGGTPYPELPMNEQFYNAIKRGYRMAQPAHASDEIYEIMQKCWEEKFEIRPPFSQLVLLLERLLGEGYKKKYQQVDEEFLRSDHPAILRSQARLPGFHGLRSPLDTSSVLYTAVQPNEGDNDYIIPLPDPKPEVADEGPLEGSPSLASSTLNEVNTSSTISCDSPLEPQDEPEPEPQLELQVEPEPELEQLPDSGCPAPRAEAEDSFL

Take `Nc1ccccc1NC(=O)c1ccc(CNC(=O)c2cccc3cc(Oc4ccnc5c(C(F)(F)F)cccc45)ccc23)cc1` [Compound 44]: the IC50 in [1] worked out at 1000 nM. Further, the “% inhibition of total HDAC enzyme activity at 30µM” value (“% inhibition” for short) in [2] was determined as 35.1%. Besides, the fold induction at 10 µM in [3] turned out to be 3.2.

With `COc1ccc(NC(=O)c2cccc3cc(Oc4ncnc5cc(OC)c(OC)cc45)ccc23)c(N)c1` [Compound 19, N-(2-amino-4-methoxyphenyl)-6-(6,7-dimethoxyquinazolin-4-yloxy)-1-naphthamide], the IC50 in [1] was 23 nM; in assay [4] it was 11 nM. Moreover, the “% inhibition” value in assay [2] stood at 21.9%. For the same molecule, in [3], the fold induction at 10 µM amounted to 1.4.

Take `COc1ccc2c(Oc3ccc4c(C(=O)Nc5ccc(F)cc5N)cccc4c3)ccnc2c1` [Compound 32, N-(2-amino-4-fluorophenyl)-6-(7-methoxyquinolin-4-yloxy)-1-naphthamide]: the IC50 in [5] came out at 7500 nM; in [1] it was 2 nM; in assay [6], 15900 nM; in [7] it was 8300 nM; in assay [4], 20 nM; in assay [8] it was 17300 nM. Further, the IC50 in [9] worked out at 6600 nM. For the same molecule, the “% inhibition” value in assay [2] amounted to 21.7%. Moreover, the fold induction at 10 µM in assay [3] was 1.8.

On to `COc1cc2nccc(Oc3ccc4c(C(=O)Nc5ccccc5N)cccc4c3)c2cc1OC` [Compound 35, N-(2-aminophenyl)-6-(6,7-dimethoxyquinolin-4-yloxy)-1-naphthamide], for which the IC50 was found to be 9100 nM in assay [5]; 1 nM in [1]; 13300 nM in assay [6]; 7700 nM in assay [7]; 5 nM in assay [4]; 19500 nM in [8]. Also, the IC50 in assay [9] was found to be 8900 nM. Besides, in assay [2], the “% inhibition” value worked out at 19.3%. The fold induction at 10 µM in [3] was 1.2.

As to `Cc1cccc2c(Oc3ccc4c(C(=O)Nc5ccccc5N)cccc4c3)ccnc12` [Compound 40, N-(2-aminophenyl)-6-(8-methylquinolin-4-yloxy)-1-naphthamide], the IC50 in [1] is 1000 nM. Besides, the “% inhibition” value in assay [2] is 22.2%. Besides, in assay [3], the fold induction at 10 µM amounted to 1.3.

For `Nc1cc(F)ccc1NC(=O)c1ccc(CNC(=O)/C=C/c2cccnc2)cc1` [CS055, Chidamide, reference compound], the IC50 was found to be 12100 nM in [5]; 3860 nM in assay [6]; 11200 nM in assay [7]; 18900 nM in [8]; 7710 nM in assay [9]. Moreover, in [3], the fold induction at 10 µM was found to be 33.

Take `COc1cc2ncnc(Oc3ccc4c(C(=O)Nc5ccc(C)cc5N)cccc4c3)c2cc1OC` [Compound 18, N-(2-amino-4-methylphenyl)-6-(6,7-dimethoxyquinazolin-4-yloxy)-1-naphthamide]: the values for the IC50 in [1] and in assay [4] were 7 nM and 15 nM, respectively. Besides, the “% inhibition” value in assay [2] was determined as 17.1%. In addition, in [3], the fold induction at 10 µM stood at 1.1.

In the case of `Nc1ccccc1NC(=O)c1cccc2cc(Oc3ccnc4c(C(F)(F)F)cccc34)ccc12` [Compound 42, N-(2-aminophenyl)-6-(8-trifluoromethylquinolin-4-yloxy)-1-naphthamide], the results for the IC50 in [1] and in assay [4] were 1000 nM and 48 nM, respectively. The “% inhibition” value in assay [2] worked out at 6.2%. Moreover, the fold induction at 10 µM in [3] amounted to 1.3.

With `COc1cc2ncnc(Oc3ccc4c(C(=O)NCc5ccc(C(=O)Nc6ccccc6N)cc5)cccc4c3)c2cc1OC` [Compound 23, N-(4-((2-aminophenyl)carbamoyl)benzyl)-6-(6,7-dimethoxyquinazolin-4-yloxy)-1-naphthamide], the IC50 is 14700 nM in assay [5]; 18 nM in assay [1]; 4300 nM in assay [6]; 30000 nM in assay [7]; 148 nM in [4]; 30000 nM in assay [8]. Further, the IC50 in [9] turned out to be 5700 nM. Moreover, the “% inhibition” value in [2] came out at 49.4%. In addition, the fold induction at 10 µM in assay [3] is 11.3.

On to `Nc1ccccc1NC(=O)c1cccc2cc(Oc3ccnc4ccccc34)ccc12` [Compound 39, N-(2-aminophenyl)-6-(quinolin-4-yloxy)-1-naphthamide], for which the results for the IC50 in assay [1] and in assay [4] were 107 nM and 32 nM, respectively. Also, the “% inhibition” value in [2] is 15.9%. For the same molecule, the fold induction at 10 µM in assay [3] amounted to 1.2.

Turning to `COc1cc2ncnc(Oc3ccc4c(C(=O)Nc5ccc(C(F)(F)F)cc5N)cccc4c3)c2cc1OC` [Compound 22, N-(2-amino-4-trifluoromethylphenyl)-6-(6,7-dimethoxyquinazolin-4-yloxy)-1-naphthamide], the figures for the IC50 in assay [1] and in assay [4] were 3 nM and 372 nM, respectively. Besides, the “% inhibition” value in assay [2] came to 17%. Moreover, in assay [3], the fold induction at 10 µM amounted to 1.1.

On to `Nc1ccccc1NC(=O)c1ccc(CNC(=O)c2cccc3cc(Oc4ccnc5cc(Cl)ccc45)ccc23)cc1` [Compound 43, N-(4-((2-aminophenyl)carbamoyl)benzyl)-6-(7-chloroquinolin-4-yloxy)-1-naphthamide], for which the IC50 in [1] was found to be 288 nM. In addition, the “% inhibition” value in assay [2] is on record as 38.7%. In [3], the fold induction at 10 µM amounted to 6.1.

Consider `Nc1ccccc1NC(=O)c1cccc2cc(Oc3ccnc4cc(Cl)ccc34)ccc12` [Compound 41, N-(2-aminophenyl)-6-(7-chloroquinolin-4-yloxy)-1-naphthamide], for which the IC50 in assay [1] worked out at 105 nM; in assay [4], 479 nM. Further, the “% inhibition” value in [2] turned out to be 19.3%. Further, the fold induction at 10 µM in [3] was 1.1.

`COc1cc2ncnc(Oc3ccc4c(C(=O)Nc5ccc(Cl)cc5N)cccc4c3)c2cc1OC` [Compound 20, N-(2-amino-4-chlorophenyl)-6-(6,7-dimethoxyquinazolin-4-yloxy)-1-naphthamide]: the IC50 in assay [1] was determined as 6 nM; in assay [4], 23 nM. For the same molecule, the “% inhibition” value in [2] was 21.9%. Also, the fold induction at 10 µM in assay [3] is 1.5.

Regarding `COc1cc2ncnc(Oc3ccc4c(C(=O)Nc5ccc(Br)cc5N)cccc4c3)c2cc1OC` [Compound 21, N-(2-amino-4-bromophenyl)-6-(6,7-dimethoxyquinazolin-4-yloxy)-1-naphthamide], the results for the IC50 in [1] and in assay [4] were 5 nM and 19 nM, respectively. For the same molecule, in [2], the “% inhibition” value is given as 18.6%. The fold induction at 10 µM in assay [3] worked out at 1.1.

Values taken from patent EP2439195B1, “NAPHTHALENE CARBOXAMIDE DERIVATIVES AS INHIBITORS OF PROTEIN KINASE AND HISTONE DEACETYLASE, PREPARATION METHODS AND USES THEREOF” (Shenzhen Chipscreen Biosciences, Ltd., priority 2009, dated 2010).
